Measured values taken from US20100249138A1, “MPZP: A SMALL MOLECULE CORTICOTROPIN-RELEASING FACTOR TYPE 1 RECEPTOR (CRF1) ANTOGONIST” (priority 2007, published 2010).

Legend:
[1] = target: T1, CRF1 receptors (Rattus norvegicus, UniProt P35353); test: CRF receptor autoradiography, rat brain sections, CRF1-rich regions; format: binding; parameters: from tissue
T1 sequence (P35353 24-415): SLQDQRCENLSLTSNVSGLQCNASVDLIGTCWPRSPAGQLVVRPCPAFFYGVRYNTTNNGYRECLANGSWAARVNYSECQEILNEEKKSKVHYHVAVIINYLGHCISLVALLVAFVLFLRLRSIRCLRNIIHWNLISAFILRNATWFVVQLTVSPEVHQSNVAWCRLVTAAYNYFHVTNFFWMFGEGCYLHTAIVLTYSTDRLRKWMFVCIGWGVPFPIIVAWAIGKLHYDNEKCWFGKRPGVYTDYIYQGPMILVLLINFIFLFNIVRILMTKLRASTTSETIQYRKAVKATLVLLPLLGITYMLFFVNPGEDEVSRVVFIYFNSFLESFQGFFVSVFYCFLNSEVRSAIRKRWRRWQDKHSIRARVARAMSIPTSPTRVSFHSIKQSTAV
Method: (§1) For CRF receptor autoradiography, brain tissue was sectioned coronally (20 μm) using a cryostat (−17° C.). Sections were mounted on Superfrost Plus+ charged glass slides (Fisher Scientific, Pittsburgh, Pa.), permitted to dry completely, and stored in airtight boxes at −80° C. until the day of autoradiography. Autoradiography was performed using standard procedures based on the previous characterization of [^125I]Tyr^0-sauvagine [Grigoriadis et al., Mol. Pharmacol. (1996) 50:679-686].
(§2) Slides containing triplicate adjacent brain sections were thawed to room temperature and permitted to dry completely. Each section then was outlined using a PAP pen (Calbiochem, San Diego, Calif.). Sections were incubated in assay buffer (DPBS with 10 mM MgCl2, 2 mM EGTA, 1 tablet/100 ml protease inhibitor, 0.15% bovine serum albumin) for 15 minutes to remove endogenous ligand. Slides then were incubated under one of four conditions: (1) 0.2 nM […] to determine total binding; (2) 0.2 nM radiolabeled sauvagine+1 μM R121919 (below)
to determine non-CRF1 (e.g., CRF2) receptor binding; (3) 0.2 nM radiolabeled sauvagine+3 μM MPZP to determine non-CRF1 (e.g., CRF2) receptor binding using the experimental compound under study; (4) 0.2 nM radiolabeled sauvagine+0.3 μM unlabeled D-Phe-CRF12-41, a subtype-nonspecific CRF receptor antagonist, to determine non-CRF1/CRF2 (e.g., nonspecific binding). […]

[2] = tested on: precipitated-withdrawal induced anxiety-like behavior; test: Defensive burying test during mecamylamine-precipitated nicotine withdrawal; format: in vivo, rat
Method: Nicotine hydrogen tartrate salt (Sigma, Natick) was dissolved in saline at pH 7.4 and experimenter-administered via minipump or self-administered via indwelling jugular catheter. Doses are expressed as free base. Mecamylamine (Sigma; Natick, Mass.) was dissolved in saline and administered i.p. (1 ml/kg). The CRF1 antagonist (N,N-bis(2-methoxyethyl)-3-(4-methoxy-2-methylphenyl)-2,5-dimethyl-pyrazolo-[1,5α]pyrimidin-7-amine, or MPZP) was synthesized at The Scripps Research Institute by Dr. P. Wirshing, dissolved in 20% hydroxypropyl beta-cyclodextrin (Cavitron, Cargill) in isotonic saline at pH 4.5 and administered s.c. (2 ml/kg, 45 to 60 min before testing). Rat/human CRF was supplied by Dr. Jean Rivier, The Salk Institute. CRF was dissolved in 1× PBS (pH 7.4) and prepared fresh few minutes before intracerebral injection. The doses and time of injections were selected based on previous studies [Richardson et al., Program No. 783. 4 Neuroscience Meeting Planner. Atlanta, Ga.: Society for Neuroscience, OnlineI (2006); Specio et al., Program No. 777. 11 Neuroscience Meeting Planner. Washington, D.C.: Society for Neuroscience, Online (2004)].
Rats were subcutaneously implanted with osmotic minipumps delivering either saline (n=33) or nicotine (n=31) (3.16 mg/kg/day, free base, s.c.) as described above. After 14 days of pump exposure, testing was performed 5-8 hours into the dark cycle in a standard cage with 2 inches of bedding (wood shavings) along the bottom and a small hole centered in one side one inch above the bedding to accommodate the shock-probe. Rats were habituated (45 minutes) to the test cage for 2 days prior to testing. On the test day, mecamylamine or its vehicle were administered 30 minutes before behavioral testing, and the CRF1 antagonist or its vehicle were administered 45 minutes before behavioral testing (n=7-9 per group). On contact with the probe and shock delivery (using a Coulbourn precision shocker, 1.5 mA, AC, <1 s), verified by a startle response, the probe was deactivated. The latency and duration of probe-directed burying, rearing, resting, grooming, and freezing were measured from videotape over a 10 minutes period by an experimenter blind to the subject treatment condition using a computer program.

[3] = tested on: cocaine self-administration; test: Cocaine self-administration in short access (ShA) and long access (LgA) rats; format: in vivo, rat; conditions: for cocaine intake compared with vehicle: 45 minutes before session
[4] = tested on: CRF2 receptors; test: CRF receptor autoradiography, rat brain sections, CRF2-rich regions; format: binding
Method: as §1, §2
to determine non-CRF1 (e.g., CRF2) receptor binding; (3) 0.2 nM radiolabeled sauvagine+3 μM MPZP to determine non-CRF1 (e.g., CRF2) receptor binding using the experimental compound under study; (4) 0.2 nM radiolabeled sauvagine+0.3 μM unlabeled D-Phe-CRF12-41, a subtype-nonspecific CRF receptor antagonist, to determine non-CRF1/CRF2 (e.g., nonspecific binding).
After 2 hours incubation at room temperature, unbound radioligand was removed via a brief dip in ice-cold assay buffer, followed by two 5 minute rinses in ice-cold washing buffer (DPBS with 0.01% Triton-X100) and one brief dip in ice-cold distilled, deionized H2O. Slides then were dried at room temperature and exposed to Kodak Biomax MR film for 2 days. Unlabeled peptides (sauvagine, D-Phe-CRF12-41) were generously provided by Dr. Jean Rivier (The Salk Institute, La Jolla, Calif.). Images were captured using a light box and digital camera computer workstation using a MTI CCDC72 digital camera equipped with a 90 mm Tamron macro lens. […]

[5] = nicotine pump, CRF1 antagonist + Mecamylamine
[6] = nicotine pump, CRF1 antagonist + Vehicle
[7] = saline pump, CRF1 antagonist + Mecamylamine
[8] = saline pump, CRF1 antagonist + Vehicle

`COCCN(CCOC)c1cc(C)nc2c(-c3ccc(OC)cc3C)c(C)nn12` [MPZP, N,N-bis(2-methoxyethyl)-3-(4-methoxy-2-methylphenyl)-2,5-dimethyl-pyrazolo[1,5-a]pyrimidin-7-amine] was tested, and the “displacement of [125I]-Tyr0-sauvagine (CRF1-like binding)” value ([1]; cerebral cortex, concentration printed 1 mM) was “displaces the majority”, the “displacement of [125I]-Tyr0-sauvagine binding from CRF1-rich regions” value ([1]; cortex and basolateral amygdala, 3 μM) was “displaced most” and the Burying [2, 5] was 115 ± 24 s. The Freezing [2, 5] was 7 ± 7 s, the Grooming [2, 5] was 38 ± 14 s and the Latency to bury [2, 5] was 82 ± 19 s. It also gave a Rearing [2, 5] of 126 ± 21 s, a Resting [2, 5] of 68 ± 26 s and a Burying [2, 6] of 85 ± 42 s. The Freezing [2, 6] was 13 ± 7 s, the Grooming [2, 6] was 48 ± 18 s and the Latency to bury [2, 6] was 130 ± 36 s. For the same compound, the Rearing [2, 6] was 181 ± 21 s, the Resting [2, 6] was 24 ± 11 s and the “anxiogenic-like effect of mecamylamine to increase burying” value ([2]; nicotine-dependent rats, MPZP 4 mg/kg s.c. pretreatment, mecamylamine 1.5 mg/kg i.p.) was “blocked”. It also gave a Burying [2, 7] of 143 ± 20 s, a Freezing [2, 7] of 5 ± 3 s and a Grooming [2, 7] of 15 ± 5 s. The Latency to bury [2, 7] was 80 ± 18 s, the Rearing [2, 7] was 139 ± 7 s and the Resting [2, 7] was 51 ± 22 s. It also gave a Burying [2, 8] of 145 ± 34 s, a Freezing [2, 8] of 9 ± 8 s and a Grooming [2, 8] of 26 ± 12 s. For the same compound, the Latency to bury [2, 8] was 104 ± 29 s, the Rearing [2, 8] was 183 ± 19 s and the Resting [2, 8] was 11 ± 7 s. For the same compound, the “slope of linear trend dose function on cocaine intake” value ([3]; LgA rats) was −0.601±0.176, the “cocaine intake compared with vehicle” value ([3]; LgA rats, 10 mg/kg s.c.) was “significant decrease” and the “cocaine intake compared with vehicle” value ([3]; LgA rats, 27.5 mg/kg s.c.) was “significant decrease”. The “slope of linear trend dose function on cocaine intake” value ([3]; ShA rats) was −0.254±0.106, the “cocaine intake compared with vehicle” value ([3]; ShA rats, 27.5 mg/kg s.c.) was “significant decrease” and the “displacement of [125I]-Tyr0-sauvagine binding from CRF2-rich regions” value ([4]; 3 μM, rat lateral septum, ventromedial hypothalamus, choroid plexus, cerebral arterioles) was “did not displace”. For the same compound, the “specificity for CRF2 receptors” value ([4]; at up to 1 μM concentrations) was “no measurable specificity” and the “displacement of [125I]-Tyr0-sauvagine binding (CRF2-like binding)” value ([4]; rat lateral septum or ventromedial hypothalamus, concentration printed 1 mM) was “does not displace”.
